Data from PubChem BioAssay (NCI).
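Each compound was tested at five concentrations against cells in 96-well plates for 48 hours. TGI is the concentration that stops growth completely.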 *1 amine or outer side, *2 acyl side, *3 side chain or, on linkers, in order; H or OH if unused. Where a SMILES comes first, the peptide text is derived from it. Bridges are numbered along the chain shown (N, C = ends). [ ]: non-standard residue; d: D form. X35 = CC[C@H](C)[C@@H](N[*:1])[C@@H](O)CC(=O)O[C@H](C(=O)[C@H](C)C(=O)[*:2])C(C)C; NMeY = CN[C@@H](Cc1ccc(O)cc1)C(=O)O

Legend:
Experiment in all cases: NCI-60 cell line screen, 48 h
A498 renal = test system: A498 renal
A549 NSCLC = test system: A549 NSCLC
ACHN renal = test system: ACHN renal
COLO 205 colon = test system: COLO 205 colon
DU-145 prostate = test system: DU-145 prostate
HL-60(TB) leukemia = test system: HL-60(TB) leukemia
HT29 colon = test system: HT29 colon
K-562 leukemia = test system: K-562 leukemia
LOX IMVI melanoma = test system: LOX IMVI melanoma
MDA-MB-231 breast = test system: MDA-MB-231 breast
MDA-MB-435 = test system: MDA-MB-435
NCI-H226 lung = test system: NCI-H226 lung
NCI/ADR-RES ovarian = test system: NCI/ADR-RES ovarian
OVCAR-3 ovarian = test system: OVCAR-3 ovarian
OVCAR-4 ovarian = test system: OVCAR-4 ovarian
SF-295 CNS = test system: SF-295 CNS
SF-539 CNS = test system: SF-539 CNS
SK-MEL-28 melanoma = test system: SK-MEL-28 melanoma
SK-OV-3 ovarian = test system: SK-OV-3 ovarian
SN12C renal = test system: SN12C renal
UACC-257 melanoma = test system: UACC-257 melanoma
UACC-62 melanoma = test system: UACC-62 melanoma
786-0 renal = test system: 786-0 renal
BT-549 breast = test system: BT-549 breast
CCRF-CEM leukemia = test system: CCRF-CEM leukemia
EKVX NSCLC = test system: EKVX NSCLC
HCC-2998 colon = test system: HCC-2998 colon
HCT-15 colon = test system: HCT-15 colon
HOP-62 NSCLC = test system: HOP-62 NSCLC
HS 578T breast = test system: HS 578T breast
IGROV1 ovarian = test system: IGROV1 ovarian
KM12 colon = test system: KM12 colon
M14 melanoma = test system: M14 melanoma
MALME-3M melanoma = test system: MALME-3M melanoma
MCF7 breast = test system: MCF7 breast
MOLT-4 leukemia = test system: MOLT-4 leukemia
NCI-H23 lung = test system: NCI-H23 lung
NCI-H460 lung = test system: NCI-H460 lung
NCI-H522 lung = test system: NCI-H522 lung
OVCAR-5 ovarian = test system: OVCAR-5 ovarian
OVCAR-8 ovarian = test system: OVCAR-8 ovarian
PC-3 prostate = test system: PC-3 prostate
RPMI-8226 leukemia = test system: RPMI-8226 leukemia
RXF 393 renal = test system: RXF 393 renal
SF-268 CNS = test system: SF-268 CNS
SK-MEL-2 melanoma = test system: SK-MEL-2 melanoma
SK-MEL-5 melanoma = test system: SK-MEL-5 melanoma
SNB-19 CNS = test system: SNB-19 CNS
SNB-75 CNS = test system: SNB-75 CNS
SR leukemia = test system: SR leukemia
SW-620 colon = test system: SW-620 colon
TK-10 renal = test system: TK-10 renal
U251 CNS = test system: U251 CNS
UO-31 renal = test system: UO-31 renal

SMILES: Cc1cc(CCC(=O)NCCNc2c3ccccc3nc3ccccc23)cc(C)c1O[Si](C)(C)C(C)(C)C
- TGI (A498 renal): 2.02 µM
- TGI (A549 NSCLC): 1.99 µM
- TGI (ACHN renal): 3.05 µM
- TGI (COLO 205 colon): 2.23 µM
- TGI (DU-145 prostate): 2.63 µM
- TGI (HL-60(TB) leukemia): 3.16 µM
- TGI (HT29 colon): 1.71 µM
- TGI (K-562 leukemia): 0.826 µM
- TGI (LOX IMVI melanoma): 0.29 µM
- TGI (MDA-MB-231 breast): 25.8 µM
- TGI (MDA-MB-435): 1.04 µM
- TGI (NCI-H226 lung): 33.4 µM
- TGI (NCI/ADR-RES ovarian): 4.44 µM
- TGI (OVCAR-3 ovarian): 3.57 µM
- TGI (OVCAR-4 ovarian): 2.67 µM
- TGI (SF-295 CNS): 2.27 µM
- TGI (SF-539 CNS): 0.377 µM
- TGI (SK-MEL-28 melanoma): 3.37 µM
- TGI (SK-OV-3 ovarian): 3.01 µM
- TGI (SN12C renal): 28.8 µM
- TGI (UACC-257 melanoma): 3.51 µM
- TGI (UACC-62 melanoma): 27.6 µM

SMILES: CC[C@H](C)[C@H]1NC(=O)[C@@H](N)[C@@H](C)OC(=O)[C@H](Cc2ccc(OC)cc2)N(C)C(=O)[C@@H]2CCCN2C(=O)[C@H](CC(C)C)NC(=O)[C@@H](C)C(=O)[C@H](C(C)C)OC(=O)C[C@@H]1O (H-T[X35]LP[NMeY](Me); ester 1-C)
- TGI (786-0 renal): > 100 µM
- TGI (A549 NSCLC): > 100 µM
- TGI (ACHN renal): > 100 µM
- TGI (BT-549 breast): 45.9 µM
- TGI (CCRF-CEM leukemia): > 100 µM
- TGI (EKVX NSCLC): > 100 µM
- TGI (HCC-2998 colon): > 100 µM
- TGI (HCT-15 colon): > 100 µM
- TGI (HL-60(TB) leukemia): > 100 µM
- TGI (HOP-62 NSCLC): > 100 µM
- TGI (HS 578T breast): > 100 µM
- TGI (HT29 colon): 38.8 µM
- TGI (IGROV1 ovarian): > 100 µM
- TGI (K-562 leukemia): > 100 µM
- TGI (KM12 colon): 68.1 µM
- TGI (LOX IMVI melanoma): > 100 µM
- TGI (M14 melanoma): 32.3 µM
- TGI (MALME-3M melanoma): > 100 µM
- TGI (MCF7 breast): > 100 µM
- TGI (MDA-MB-435): 56.1 µM
- TGI (MOLT-4 leukemia): > 100 µM
- TGI (NCI-H226 lung): > 100 µM
- TGI (NCI-H23 lung): > 100 µM
- TGI (NCI-H460 lung): > 100 µM
- TGI (NCI-H522 lung): 25.1 µM
- TGI (NCI/ADR-RES ovarian): > 100 µM
- TGI (OVCAR-3 ovarian): > 100 µM
- TGI (OVCAR-4 ovarian): > 100 µM
- TGI (OVCAR-5 ovarian): > 100 µM
- TGI (OVCAR-8 ovarian): > 100 µM
- TGI (PC-3 prostate): > 100 µM
- TGI (RPMI-8226 leukemia): > 100 µM
- TGI (RXF 393 renal): > 100 µM
- TGI (SF-268 CNS): > 100 µM
- TGI (SF-295 CNS): > 100 µM
- TGI (SF-539 CNS): 66.2 µM
- TGI (SK-MEL-2 melanoma): > 100 µM
- TGI (SK-MEL-28 melanoma): > 100 µM
- TGI (SK-MEL-5 melanoma): 54.9 µM
- TGI (SK-OV-3 ovarian): > 100 µM
- TGI (SN12C renal): > 100 µM
- TGI (SNB-19 CNS): > 100 µM
- TGI (SNB-75 CNS): > 100 µM
- TGI (SR leukemia): > 100 µM
- TGI (SW-620 colon): 50.1 µM
- TGI (TK-10 renal): > 100 µM
- TGI (U251 CNS): > 100 µM
- TGI (UACC-257 melanoma): > 100 µM
- TGI (UACC-62 melanoma): 92.3 µM
- TGI (UO-31 renal): 68.7 µM
